Data as given in patent US9260382B2, “Methods of reducing virulence in bacteria” (priority 2010, dated 2016).

Key:
[1] = tested on: Pseudomonas syringae pv. tomato DC3000 (HR elicitation); test: Hypersensitive response (HR) assay in tobacco leaves; type: in vivo; conditions: Nicotiana tabacum cv. Xanthi, 18 hours post-infiltration
Description: Bacterial cells from overnight cultures grown in KB broth were resuspended in sterile dH2O. Cell suspensions were mixed with chemicals and allowed to sit for 30 minutes before plant inoculation. Nicotiana tabacum cv. Xanthi plants were used for HR assays. Tobacco leaves were pressure infiltrated by use of a needless syringe (Fu et al. 2006) with 1×10^8 cells/ml and 25 μM, 50 μM, 100 μM, 250 μM, or 500 μM TCA. Plants were photographed and assessed for macroscopic tissue collapse indicative of HR 18 h post-inoculation.
In DC3000, mutations in genes which encode components of the T3SS result in the inability to elicit HR in non-hosts (Collmer et al. 2000). Since TCA represses expression of hrpA (a major component of the T3SS) in vitro, the ability of TCA to suppress HR in planta was examined. DC3000 (OD600=0.1) with 25 μM, 50 μM, 100 μM, 250 μM, or 500 μM of TCA in DMSO was injected into leaves of tobacco (Nicotiana tabacum cv. Xanthi). Concentrations of DMSO which correspond to similar amounts of TCA were also injected into the tobacco plants as negative controls. Tobacco leaves were assessed for HR symptoms 18 hours post-infiltration. No visible signs of tissue damage or HR were observed when DMSO or TCA was separately infiltrated into the tobacco leaves (data not shown). […] This effect is most likely due to lack of a functional T3SS.

hrpY mRNA = test: qRT-PCR relative mRNA level of hrpY; type: cell-based, Dickeya dadantii 3937; conditions: 0.1 mM in MM
Description: Bacterial strains were grown in MM. Total RNA from the bacterial cells was isolated by using the TRI reagent method (Sigma, Mo.) and treated with Turbo DNA-free DNase kits (Ambion, Tex.) as described (Peng et al., 2006). An iScript cDNA Synthesis Kit (Bio-Rad, CA) was used to synthesize cDNA from 0.5 μg of treated total RNA. The Real Master Mix (Eppendorf, Westbury, N.Y.) was used for qRT-PCR reaction to quantify the cDNA level of target genes in different samples. The rplU was used as the endogenous control for data analysis. qRT-PCR data were analyzed using Relative Expression Software Tool as described (Pfaffl, M. W., Horgan, G. W., and Dempfle, L. (2002) Relative expression software tool (REST) for group-wise comparison and statistical analysis of relative expression results in real-time PCR. Nucleic Acids Res 30:e36.).

Structure (SMILES) | elicitation of HR by DC3000 in tobacco leaves, in words ([1]; infiltrated with 100 μM) | elicitation of HR by DC3000 in tobacco leaves, in words ([1]; infiltrated with 250 μM) | hrpY mRNA compared with MM alone, in words (hrpY mRNA)
O=C(O)/C=C/c1ccccc1 [Compound 001, trans-cinnamic acid] | unable to completely block HR | completely suppressed | –
O=C(O)/C=C/c1ccccc1O [Compound 006, Ortho-coumaric acid] | – | – | No significant difference
